The record followed here is patent US8614206B2 (Genentech, Inc., priority 2011, dated 2013).

PIM1, sequence (P11309 whole entry): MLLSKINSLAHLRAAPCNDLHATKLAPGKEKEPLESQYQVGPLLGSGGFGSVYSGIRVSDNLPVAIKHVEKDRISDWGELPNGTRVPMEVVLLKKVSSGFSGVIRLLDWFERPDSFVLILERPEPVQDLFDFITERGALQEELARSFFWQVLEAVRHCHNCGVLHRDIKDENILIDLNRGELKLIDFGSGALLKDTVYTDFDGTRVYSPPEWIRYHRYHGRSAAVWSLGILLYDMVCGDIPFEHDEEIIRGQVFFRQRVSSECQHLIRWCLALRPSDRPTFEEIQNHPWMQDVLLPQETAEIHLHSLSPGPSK

This assay has as its target PIM1 (Homo sapiens (Human), UniProt P11309). Description: Pim kinase inhibition, PIM1 LC3K (Example 901). It counts as biochemical.
From the text: Determination of the Pim kinase activity of a Formula I compound is possible by a number of direct and indirect detection methods.
`Cn1ncc(NC(=O)c2nc(-c3ccccc3F)ccc2N)c1N1CC[C@H](N)CC(F)(F)C1` (stereo in doubt) [Example 249, 3-amino-N-(5-(5-amino-3,3-difluoroazepan-1-yl)-1-methyl-1H-pyrazol-4-yl)-6-(2-fluorophenyl)picolinamide]: the affinity corresponds to a Ki of 0.02 nM.

Consider `Nc1sc(-c2c(F)cccc2F)nc1C(=O)Nc1cnn(CC(F)F)c1N1CCCC[C@@H](N)C1` [Example 104, (R)-5-amino-N-(5-(3-aminoazepan-1-yl)-1-(2,2-difluoroethyl)-1H-pyrazol-4-yl)-2-(2,6-difluorophenyl)thiazole-4-carboxamide], for which the Ki came to 0.091 nM.

`Cc1ccc(F)c(-c2nc(C(=O)Nc3cnn(C)c3N3CCNCC(F)(F)C3)c(N)s2)c1` [Example 105, 5-Amino-N-(5-(6,6-difluoro-1,4-diazepan-1-yl)-1-methyl-1H-pyrazol-4-yl)-2-(2-fluoro-5-methylphenyl)thiazole-4-carboxamide] came in with a Ki of 0.019 nM.

For the compound `Nc1sc(-c2c(F)cccc2F)nc1C(=O)Nc1cnn(CC(F)F)c1N1CCCC(O)CC1` (stereo not shown) [Example 110, 5-Amino-N-(1-(2,2-difluoroethyl)-5-(4-hydroxyazepan-1-yl)-1H-pyrazol-4-yl)-2-(2,6-difluorophenyl)thiazole-4-carboxamide], the affinity corresponds to a Ki of 0.166 nM.

Compound `Cc1ccc(F)c(-c2nc(C(=O)Nc3cnn(CC(F)F)c3N3CCCC(O)CC3)c(N)s2)c1` (stereo not shown) [Example 111, 5-Amino-N-(1-(2,2-difluoroethyl)-5-(4-hydroxyazepan-1-yl)-1H-pyrazol-4-yl)-2-(2-fluoro-5-methylphenyl)thiazole-4-carboxamide] returned an inhibitory constant (Ki) of 0.079 nM.

Regarding `Nc1sc(-c2cc(F)ccc2F)nc1C(=O)Nc1cnn(CC(F)F)c1N1CCCC(O)CC1` (stereo not shown) [Example 118, 5-Amino-N-(1-(2,2-difluoroethyl)-5-(4-hydroxyazepan-1-yl)-1H-pyrazol-4-yl)-2-(2,5-difluorophenyl)thiazole-4-carboxamide], the Ki was 0.292 nM.

In turn, `Cn1ncc(NC(=O)c2nc(-c3ccccc3F)cnc2N)c1N1CC[C@H](N)CC(F)(F)C1` [Example 247, (S)-3-amino-N-(5-(5-amino-3,3-difluoroazepan-1-yl)-1-methyl-1H-pyrazol-4-yl)-6-(2-fluorophenyl)pyrazine-2-carboxamide] displayed a Ki of 0.01 nM.

Consider `Cn1ncc(NC(=O)c2nc(-c3ccccc3F)ccc2N)c1N1CC[C@@H](N)CC(F)(F)C1` [Example 250, (R)-3-amino-N-(5-(5-amino-3,3-difluoroazepan-1-yl)-1-methyl-1H-pyrazol-4-yl)-6-(2-fluorophenyl)picolinamide], for which the Ki was determined as 0.03 nM.

In the case of `Nc1sc(-c2c(F)cccc2F)nc1C(=O)Nc1cnn(CC2COC2)c1N1CCNCC1` [Example 251, 5-Amino-2-(2,6-difluoro-phenyl)-thiazole-4-carboxylic acid (1-oxetan-3-ylmethyl-5-piperazin-1-yl-1H-pyrazol-4-yl)-amide], the Ki was > 667 nM.

Regarding `Cn1ncc(NC(=O)c2nc(-c3c(F)cccc3F)sc2N)c1N1CCC(N)CC(C)(F)C1` (stereo not shown) [Example 256, 5-Amino-2-(2,6-difluoro-phenyl)-thiazole-4-carboxylic acid [5-(5-amino-3-fluoro-3-methyl-azepan-1-yl)-1-methyl-1H-pyrazol-4-yl]-amide], the Ki was determined as 0.009 nM.

`Cc1ccc(F)c(-c2nc(C(=O)Nc3cnn(C)c3N3CC[C@@H](N)[C@@H](F)CC3)c(N)s2)c1` [Example 265, 5-amino-N-(5-((4R,5S)-4-amino-5-fluoroazepan-1-yl)-1-methyl-1H-pyrazol-4-yl)-2-(2-fluoro-5-methylphenyl)thiazole-4-carboxamide] yielded an inhibitory constant (Ki) of 0.038 nM.

The compound `Cn1ncc(NC(=O)c2nc(-c3cc(F)ccc3F)sc2N)c1N1CC[C@@H](F)[C@@H](N)CC1` [Example 266, 5-amino-N-(5-((4S,5R)-4-amino-5-fluoroazepan-1-yl)-1-methyl-1H-pyrazol-4-yl)-2-(2,5-difluorophenyl)thiazole-4-carboxamide] returned an inhibition constant Ki of 0.253 nM.

In turn, `Cn1ncc(NC(=O)c2nc(-c3ncccc3F)sc2N)c1N1CC[C@@H](N)[C@H](F)CC1` [Example 268, 5-amino-N-(5-((4R,5R)-4-amino-5-fluoroazepan-1-yl)-1-methyl-1H-pyrazol-4-yl)-2-(3-fluoropyridin-2-yl)thiazole-4-carboxamide] had a Ki of 0.186 nM.

`Cn1ncc(NC(=O)c2nc(-c3ncccc3F)sc2N)c1N1CC[C@H](N)[C@@H](F)CC1` [Example 269, 5-amino-N-(5-((4S,5S)-4-amino-5-fluoroazepan-1-yl)-1-methyl-1H-pyrazol-4-yl)-2-(3-fluoropyridin-2-yl)thiazole-4-carboxamide] gave an inhibition constant (Ki) of 0.091 nM.

Compound `Cn1ncc(NC(=O)c2nc(-c3cc(F)ccc3F)sc2N)c1N1CC[C@@H](N)[C@@H](F)CC1` [Example 271, 5-amino-N-(5-((4R,5S)-4-amino-5-fluoroazepan-1-yl)-1-methyl-1H-pyrazol-4-yl)-2-(2,5-difluorophenyl)thiazole-4-carboxamide] had a Ki of 0.058 nM.

`Cc1ccc(F)c(-c2nc(C(=O)Nc3cnn(C)c3N3CC[C@@H](F)[C@@H](N)CC3)c(N)s2)c1` [Example 272, 5-amino-N-(5-((4S,5R)-4-amino-5-fluoroazepan-1-yl)-1-methyl-1H-pyrazol-4-yl)-2-(2-fluoro-5-methylphenyl)thiazole-4-carboxamide] had an inhibition constant (Ki) of 0.147 nM.

`Nc1sc(-c2c(F)cccc2F)nc1C(=O)Nc1cnn(CC(F)F)c1N1CC[C@@H](N)CC(F)(F)C1` [Example 281] returned a Ki of 0.02 nM.

Regarding `Cn1ncc(NC(=O)c2nc(-c3cc(F)ccc3F)sc2N)c1N1CC[C@H](N)CC(F)(F)C1` [Example 282, (S)-5-amino-N-(5-(5-amino-3,3-difluoroazepan-1-yl)-1-methyl-1H-pyrazol-4-yl)-2-(2,5-difluorophenyl)thiazole-4-carboxamide], affinity was put at a Ki of 0.004 nM.

Take `Cn1ncc(NC(=O)c2nc(-c3cc(F)ccc3F)sc2N)c1N1CC[C@@H](N)CC(F)(F)C1` [Example 283, (R)-5-amino-N-(5-(5-amino-3,3-difluoroazepan-1-yl)-1-methyl-1H-pyrazol-4-yl)-2-(2,5-difluorophenyl)thiazole-4-carboxamide]: affinity was put at a Ki of 0.008 nM.

`Cc1ccc(F)c(-c2nc(C(=O)Nc3cnn(C)c3N3CC[C@H](N)CC(F)(F)C3)c(N)s2)c1` [Example 284, (S)-5-amino-N-(5-(5-amino-3,3-difluoroazepan-1-yl)-1-methyl-1H-pyrazol-4-yl)-2-(2-fluoro-5-methylphenyl)thiazole-4-carboxamide] came in with an inhibition constant Ki of 0.015 nM.

Turning to `Cc1ccc(F)c(-c2nc(C(=O)Nc3cnn(C)c3N3CC[C@@H](N)CC(F)(F)C3)c(N)s2)c1` [Example 285], affinity was put at a Ki of 0.018 nM.

Take `C[C@H]1CN(c2c(NC(=O)c3nc(-c4c(F)cccc4F)sc3N)cnn2CC(F)(F)F)CCN1` [Example 301, (S)-5-Amino-2-(2,6-difluorophenyl)-N-(5-(3-methylpiperazin-1-yl)-1-(2,2,2-trifluoroethyl)-1H-pyrazol-4-yl)thiazole-4-carboxamide]: the inhibition constant (Ki) came to 2.1 nM.

For `Nc1sc(-c2c(F)cccc2F)nc1C(=O)Nc1cnn(CC(F)(F)F)c1N1CCCCC(N)C1` (stereo not shown) [Example 302, 5-Amino-2-(2,6-difluoro-phenyl)-thiazole-4-carboxylic acid [5-(3-amino-azepan-1-yl)-1-(2,2,2-trifluoro-ethyl)-1H-pyrazol-4-yl]-amide], the inhibition constant (Ki) stood at 0.175 nM.

In turn, `Nc1sc(-c2c(F)cccc2F)nc1C(=O)Nc1cnn(CC(F)(F)F)c1N1CCCCC(N)C1` (stereo not shown) [Example 303, 5-Amino-2-(2,6-difluoro-phenyl)-thiazole-4-carboxylic acid [5-(3-amino-azepan-1-yl)-1-(2,2,2-trifluoro-ethyl)-1H-pyrazol-4-yl]-amide] had an inhibition constant (Ki) of 0.208 nM.

Consider `Cc1ccc(F)c(-c2nc(C(=O)Nc3cnn(C4CC4)c3N3CCC(N)C(F)CC3)c(N)s2)c1` (stereo not shown) [Example 330, 5-amino-N-[5-(4-amino-5-fluoro-azepan-1-yl)-1-cyclopropyl-pyrazol-4-yl]-2-(2-fluoro-5-methyl-phenyl)thiazole-4-carboxamide], for which the Ki is 0.087 nM.

For `Cn1ncc(NC(=O)c2nc(-c3c(F)cccc3F)sc2N)c1N1CCC[C@H](NCC2(C)COC2)CC1` [Example 334, 5-amino-2-(2,6-difluorophenyl)-N-[1-methyl-5-[(4S)-4-[(3-methyloxetan-3-yl)methylamino]azepan-1-yl]pyrazol-4-yl]thiazole-4-carboxamide], the affinity, expressed as Ki, was 0.295 nM.

`Cn1ncc(NC(=O)c2nc(-c3c(F)cccc3F)sc2N)c1N1CCC[C@H](N(CCO)CCO)CC1` [Example 336, 5-amino-N-[5-[(4S)-4-[bis(2-hydroxyethyl)amino]azepan-1-yl]-1-methyl-pyrazol-4-yl]-2-(2,6-difluorophenyl)thiazole-4-carboxamide] came in with a Ki of 0.199 nM.

As to `Nc1sc(-c2cc(F)ccc2F)nc1C(=O)Nc1cnn(C2CC2)c1N1CCC(N)C(F)CC1` (stereo not shown) [Example 338, 5-amino-N-[5-(4-amino-5-fluoro-azepan-1-yl)-1-cyclopropyl-pyrazol-4-yl]-2-(2,5-difluorophenyl)thiazole-4-carboxamide], the affinity, expressed as Ki, was 0.159 nM.

The compound `Nc1sc(-c2cc(F)ccc2F)nc1C(=O)Nc1cnn(C2CC2)c1N1CCC(N)C(F)CC1` (stereo not shown) [Example 339, 5-amino-N-[5-(4-amino-5-fluoro-azepan-1-yl)-1-cyclopropyl-pyrazol-4-yl]-2-(2,5-difluorophenyl)thiazole-4-carboxamide] came in with an inhibitory constant (Ki) of 0.226 nM.

Take `Cn1ncc(NC(=O)c2nc(-c3c(F)cccc3F)sc2N)c1N1CCC[C@H](NCC2COC2)CC1` [Example 342, 5-amino-2-(2,6-difluorophenyl)-N-[1-methyl-5-[(4S)-4-(oxetan-3-ylmethylamino)azepan-1-yl]pyrazol-4-yl]thiazole-4-carboxamide]: the affinity, expressed as Ki, was 0.075 nM.

`Cn1ncc(NC(=O)c2nc(-c3c(F)cccc3F)sc2N)c1N1CCC[C@H](N(CC2COC2)CC2COC2)CC1` [Example 343, 5-amino-N-[5-[(4S)-4-[bis(oxetan-3-ylmethyl)amino]azepan-1-yl]-1-methyl-pyrazol-4-yl]-2-(2,6-difluorophenyl)thiazole-4-carboxamide] gave a Ki of 0.962 nM.

Usually Ki stands for a dissociation constant, usually derived from enzyme kinetics or from competition with a known ligand. A low value points to tighter binding.
